Reference: PubChem BioAssay AID248 (DTP/NCI, 2004)
Toxic doses and inconclusive results are not listed.

System: L1210 leukemia ip in BDF1 mice, survival T/C
Experiment: NCI In Vivo Anticancer Drug Screen. Data for tumor model L1210 Leukemia (intraperitoneal) in B6D2F1 (BDF1) mice
Details: endpoint: mean survival time, higher = longer survival
Procedure, shortened: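 Tumor was transplanted into mice, which were then dosed with test compound or vehicle alone. Survival was recorded for each group, and the treated figure was expressed relative to the control figure.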

[1] = dose: 100.0 mg/kg/injection, schedule: Q01DX001 (ip), vehicle: Klucel (hydroxypropylcellulose) (HPC)
[2] = dose: 200.0 mg/kg/injection, schedule: Q01DX001 (ip), vehicle: Klucel (hydroxypropylcellulose) (HPC)
[3] = dose: 50.0 mg/kg/injection, schedule: Q04DX002 (ip), vehicle: saline with Tween-80
[4] = dose: 100.0 mg/kg/injection, schedule: Q04DX002 (ip), vehicle: saline with Tween-80
[5] = dose: 200.0 mg/kg/injection, schedule: Q04DX002 (ip), vehicle: saline with Tween-80
[6] = dose: 100.0 mg/kg/injection, schedule: Q01DX001 (ip), vehicle: saline
[7] = dose: 200.0 mg/kg/injection, schedule: Q01DX001 (ip), vehicle: saline
[8] = dose: 400.0 mg/kg/injection, schedule: Q01DX001 (ip), vehicle: saline

Which T/C (dose: 12.5 mg/kg/injection, schedule: Q04DX003 (ip), vehicle: saline with Tween-80) does the source give for `CC(=O)NC1=C(NC(C)C)C(=O)c2ccccc2C1=O` here?
Its T/C is 94 % of control.

With `COC(=O)c1cc(=O)c2c(=O)n(Cc3ccccc3)c(=O)n(Cc3ccccc3)c2[nH]1` as the molecule, how does the T/C [1] read?
Its T/C is 106 % of control.

What about the T/C [2] of the same molecule?
Its T/C is 100 % of control.

And the T/C (dose: 400.0 mg/kg/injection, schedule: Q01DX001 (ip), vehicle: Klucel (hydroxypropylcellulose) (HPC))?
The T/C was 118 % of control.

How did the T/C (dose: 100.0 mg/kg/injection, schedule: Q04DX003 (ip), vehicle: alcohol) turn out when `CCCc1ccccc1O` was run?
Its T/C is 97 % of control.

And the T/C (dose: 200.0 mg/kg/injection, schedule: Q04DX003 (ip), vehicle: alcohol)?
Its T/C is 94 % of control.

For `S=c1c2ccccc2oc2ccccc12`, which T/C [3] is on record?
Its T/C is 93 % of control.

And the T/C [4]?
The T/C was 93 % of control.

What about the T/C [5] of the same molecule?
Its T/C is 87 % of control.

And the T/C (dose: 400.0 mg/kg/injection, schedule: Q04DX002 (ip), vehicle: saline with Tween-80)?
The T/C was 97 % of control.

How did the T/C (dose: 8.0 mg/kg/injection, schedule: Q01DX001 (ip), vehicle: other) turn out when `CC1CCC(NC(=O)N(CCF)N=O)CC1` (configuration not stated) was run?
Its T/C is 115 % of control.

What about the T/C (dose: 26.0 mg/kg/injection, schedule: Q01DX001 (ip), vehicle: other) of the same molecule?
The T/C was 433 % of control.

And the T/C (dose: 40.0 mg/kg/injection, schedule: Q01DX001 (ip), vehicle: other)?
The T/C was 500 % of control.

And the T/C (dose: 60.0 mg/kg/injection, schedule: Q01DX001 (ip), vehicle: other)?
The T/C was 437 % of control.

`CN1C2CNC(=O)CC1C1CCC2C1` (configuration not stated) was tested. Which T/C (dose: 25.0 mg/kg/injection, schedule: Q04DX002 (ip), vehicle: saline) did it give?
Its T/C is 94 % of control.

What about the T/C (dose: 50.0 mg/kg/injection, schedule: Q04DX002 (ip), vehicle: saline) of the same molecule?
The T/C was 102 % of control.

What about the T/C (dose: 75.0 mg/kg/injection, schedule: Q01DX001 (ip), vehicle: carboxymethylcellulose (CMC)) of the same molecule?
The T/C was 106 % of control.

What does the source list for `CCC(=O)N1CCOCC1`?
T/C (dose: 100.0 mg/kg/injection, schedule: Q04DX003 (ip), vehicle: saline): 102 % of control; T/C (dose: 200.0 mg/kg/injection, schedule: Q04DX003 (ip), vehicle: saline): 105 % of control; T/C (dose: 400.0 mg/kg/injection, schedule: Q04DX003 (ip), vehicle: saline): 98 % of control

What does the source list for `O=C(O)/C=C/c1cc(Br)sc1Br`?
T/C [6]: 96 % of control; T/C [7]: 107 % of control; T/C [8]: 88 % of control

What does the source list for `COC12C(CC3C4CC=C5CC(OC(C)=O)CCC5(C)C4CCC31C)C(c1ccccc1)=NN2c1ccccc1` (configuration not stated)?
T/C (dose: 12.5 mg/kg/injection, schedule: Q04DX002 (ip), vehicle: Klucel (hydroxypropylcellulose) (HPC)): 101 % of control; T/C (dose: 25.0 mg/kg/injection, schedule: Q04DX002 (ip), vehicle: Klucel (hydroxypropylcellulose) (HPC)): 104 % of control; T/C (dose: 50.0 mg/kg/injection, schedule: Q04DX002 (ip), vehicle: Klucel (hydroxypropylcellulose) (HPC)): 101 % of control

Which results are given for `CCOC(=O)NCS(=O)(=O)c1ccccc1-c1ccccc1`?
T/C (dose: 100.0 mg/kg/injection, schedule: Q04DX003 (ip), vehicle: Klucel (hydroxypropylcellulose) (HPC)): 93 % of control; T/C (dose: 200.0 mg/kg/injection, schedule: Q04DX003 (ip), vehicle: Klucel (hydroxypropylcellulose) (HPC)): 104 % of control

How did the T/C (dose: 25.0 mg/kg/injection, schedule: Q01DX009 (ip), vehicle: saline) turn out when `CCN(CC)c1ccc(N=Nc2ccc(S(=O)(=O)O)cc2)cc1` was run?
The T/C was 97 % of control.

And the T/C (dose: 50.0 mg/kg/injection, schedule: Q01DX009 (ip), vehicle: saline)?
The T/C was 91 % of control.

And the T/C [6]?
The T/C was 88 % of control.

And the T/C (dose: 100.0 mg/kg/injection, schedule: Q01DX009 (ip), vehicle: saline)?
The T/C was 100 % of control.

Which results are given for `CC(=O)N1Cc2c(N)ncnc2C1C` (configuration not stated)?
T/C [6]: 100 % of control; T/C [7]: 108 % of control; T/C [8]: 114 % of control

How did the T/C (dose: 50.0 mg/kg/injection, schedule: Q01DX001 (ip), vehicle: Klucel (hydroxypropylcellulose) (HPC)) turn out when `COc1cc(C2(O)C=C(C)C(=O)C=C2C)c(OC)cc1C` (configuration not stated) was run?
Its T/C is 92 % of control.

What about the T/C [1] of the same molecule?
The T/C was 87 % of control.

What about the T/C [2] of the same molecule?
Its T/C is 86 % of control.

What does the source list for `COc1ccc(C(=O)c2cnc(C)n2Cc2ccccc2)cc1`?
T/C (dose: 100.0 mg/kg/injection, schedule: Q01DX009 (ip), vehicle: Klucel (hydroxypropylcellulose) (HPC)): 106 % of control; T/C (dose: 200.0 mg/kg/injection, schedule: Q01DX009 (ip), vehicle: Klucel (hydroxypropylcellulose) (HPC)): 106 % of control; T/C (dose: 400.0 mg/kg/injection, schedule: Q01DX009 (ip), vehicle: Klucel (hydroxypropylcellulose) (HPC)): 114 % of control

How did the T/C (dose: 75.0 mg/kg/injection, schedule: Q01DX001 (ip), vehicle: Klucel (hydroxypropylcellulose) (HPC)) turn out when `CCCn1ccc(N)nc1=O` was run?
The T/C was 116 % of control.

What about the T/C (dose: 150.0 mg/kg/injection, schedule: Q01DX001 (ip), vehicle: Klucel (hydroxypropylcellulose) (HPC)) of the same molecule?
The T/C was 119 % of control.

And the T/C (dose: 300.0 mg/kg/injection, schedule: Q01DX001 (ip), vehicle: Klucel (hydroxypropylcellulose) (HPC))?
The T/C was 111 % of control.

`O=C1NC(c2ccc(Cl)cc2)N2C(=O)NC(c3ccc(Cl)cc3)N12` (configuration not stated) was tested. Which T/C [3] did it give?
Its T/C is 97 % of control.

And the T/C [4]?
Its T/C is 94 % of control.

What about the T/C [5] of the same molecule?
The T/C was 97 % of control.
